In patent US12383502B2, “Cold-water-dispersible chemical delivery system” (PHARMAKO BIOTECHNOLOGIES PTY LIMITED, priority 2017, dated 2025):
Where two headings read alike, the source gives them in different places. Values belong to the molecule of their own block, whether it stands above or below them.

Key:
[1] = Dispersion of composition in water (visual); format: physicochemical; conditions: for liquid dispersibility / wettability: solid placed on liquid (FIG. 2)
[2] = PEA pharmacokinetics, single 300 mg dose; format: in vivo, human; conditions: for Cmax: po, 300 mg
Procedure: A single equivalent dose, randomised, double blinded study was used to evaluate the pharmacokinetics of 2 different PEA formulations administered in single 300 mg doses (standard PEA and Lipisperse PEA from Batch#MT20170615_01 described in Example 7). All trial participants, investigators conducting the trial and the biochemist analysing the samples were blinded to who was on each product.
Subjects were healthy adult male (n=10) and female (n=8; non-pregnant and non-lactating) volunteers between the ages of 18-30 years. All participants were advised to fast from 10:[…] the night prior to the study commencing until the collection of the first blood sample. Breakfast and lunch were provided to the participants at the centre. This is a standard feeding study with nutritionally balanced meals and snacks provided during the 0-6 hour sample collection. Subjects remained on site for the full 6 hours of sample collection. Only participants who provided at least 9 of the 11 samples collected between 0-24 hours had their data analysed.
For PEA pharmacokinetic analysis, blood samples (3mL collected into ethylenediaminetetraacetic acid (EDTA) containing tubes) were drawn prior to supplementation (hour 0) and at 30, 45, 60, 90, 120, 180, 240, 300, 360 minutes and 24 hours post supplementation. Once obtained, the blood collection tube was briefly mixed by inversion, placed on ice and centrifuged within 10 minutes of collection (600×g, 4° C. for 10 minutes) to separate the plasma. Once spun, EDTA plasma was carefully removed and approximately 3×500 μl aliquots made. Aliquots were temporarily stored at −20° C. (<48 hours) before being transported and stored at −80° C.
Plasma samples were removed from storage at −80° C. and allowed to thaw to room temperature. Once thawed, 100 μL of sample was added to a microfuge tube along with 20 μL of an internal standard solution (50 ng/mL of D8-arachidonic acid (D8-AA) in ethanol). Proteins were precipitated by adding 100 μL of acetone. The tubes were capped and vortex mixed for 15 seconds then put on ice for 10 minutes. The resulting solution was spun at 12,000×g for 10 minutes before the supernatant was removed into a new tube. To the supernatant, 800 μL of a methanol/chloroform solution (2:1) was added along with 240 μL of 3M HCl to achieve phase separation. This solution was vortex mixed for 10 seconds followed by gentle mixing on rotator. After 10 minutes of gentle rotation, the tubes were centrifuged at 12,000×g for 10 minutes with the resulting chloroform layer (bottom layer) transferred to a glass culture tube and dried under a stream of nitrogen gas.
Once dry, the samples were reconstituted in 100 μL of ethanol, mixed and the contents transferred to salinized GC-MS glass inserts and dried under nitrogen. Once dry, the samples were derivatized via the addition of 40 μL of pentafluorobenzylbromide (PFBBr, 10% in acetonitrile −4 μL of PFBBr and 36 μL of ACN) and 20 μL di-isopropylethylamine (DIPEA, 10% in acetonitrile−2 μL DIPEA and 18 μL of ACN) and vortex mixed for 5 seconds. Samples were then incubated at room temperature for 30 min before being dried under nitrogen and the insert placed into GC-MS vials. To each vial, 10 μL of anhydrous pyridine and 20 μL of bis-(trimethylsilyl)trifluoroacetamide and trimethylchlorosilane (BSTFA+TMCS, 99:1) was added, the vial capped and vortex mixed for 5 seconds. The samples were incubated for 20 min at 45° C. The samples were allowed to cool before 70 μL of anhydrous hexane was added and the samples place on the auto sampler rack for analysis.
The standard PEA was purchased from Sigma Aldrich (P0359-10MG) and stored at −20° C. as per manufacturer's instructions. The PEA standard was made up to 1 mM solution with ethanol. Working standard solutions were prepared by diluting the 1 mM solution (or 1 μM/mL) 1:10 with ethanol for a 100 nM/mL solution. This solution was further diluted 1:10 with hexane for a concentration of 10 nM/mL. […]

SMILES: COc1cc(/C=C/C(=O)CC(=O)/C=C/c2ccc(O)c(OC)c2)ccc1O [curcumin]
liquid dispersibility / wettability [1]: sitting on top of a liquid, without dispersion

Cmax ([2]; both sexes, human, plasma, plasma, single oral 300 mg, n=9 per group, read-out: Cmax PEA): 3010 ± 1240 ng/mL
Cmax ([2]; both sexes, human, plasma, plasma, single oral 300 mg, n=9 per group, read-out: Delta Cmax (peak change in PEA concentration from baseline)): 410 ng/mL
concentration at 24 h ([2]; both sexes, human, plasma, single oral 300 mg, data not shown, read-out: plasma PEA concentration at the 24 hours collection): 2690 ± 1060 ng/mL
concentration at 0 h ([2]; both sexes, human, plasma, prior to supplementation (hour 0), n=9 per group, read-out: Baseline PEA concentration): 2590 ± 770 ng/mL
Peak timing ([2]; plasma PEA, single oral 300 mg): 45 min
SMILES: CCCCCCCCCCCCCCCC(=O)NCCO [Standard PEA, Palmitoylethanolamide]
adverse events ([2]; single 300 mg dose, n=9 per group): No adverse events

SMILES: CCCCCCCCCCCCCCCC(=O)NCCO [PEA, Palmitoylethanolamide]
liquid dispersibility / wettability [1]: sitting on top of a liquid, without dispersion

dispersion in water after mixing and standing ([1]; added to water, mixed and allowed to stand (FIG. 10, FIG. 16)): does not disperse effectively
SMILES: Oc1ccc(C=Cc2cc(O)cc(O)c2)cc1 [untreated resveratrol, resveratrol]
